According to ChEMBL document CHEMBL4507268 (2021):

How the values were obtained:
Conditions in all cases: Compound concentration 1.0 uM
[1] = biological target: Tyrosine-protein kinase Fgr (Homo sapiens) (UniProt P09769)
[2] = biological target: Serine/threonine-protein kinase pim-1 (Homo sapiens) (UniProt P11309)
[3] = biological target: T1, Ephrin type-B receptor 4 (Homo sapiens) (UniProt P54760)
T1 sequence (whole entry): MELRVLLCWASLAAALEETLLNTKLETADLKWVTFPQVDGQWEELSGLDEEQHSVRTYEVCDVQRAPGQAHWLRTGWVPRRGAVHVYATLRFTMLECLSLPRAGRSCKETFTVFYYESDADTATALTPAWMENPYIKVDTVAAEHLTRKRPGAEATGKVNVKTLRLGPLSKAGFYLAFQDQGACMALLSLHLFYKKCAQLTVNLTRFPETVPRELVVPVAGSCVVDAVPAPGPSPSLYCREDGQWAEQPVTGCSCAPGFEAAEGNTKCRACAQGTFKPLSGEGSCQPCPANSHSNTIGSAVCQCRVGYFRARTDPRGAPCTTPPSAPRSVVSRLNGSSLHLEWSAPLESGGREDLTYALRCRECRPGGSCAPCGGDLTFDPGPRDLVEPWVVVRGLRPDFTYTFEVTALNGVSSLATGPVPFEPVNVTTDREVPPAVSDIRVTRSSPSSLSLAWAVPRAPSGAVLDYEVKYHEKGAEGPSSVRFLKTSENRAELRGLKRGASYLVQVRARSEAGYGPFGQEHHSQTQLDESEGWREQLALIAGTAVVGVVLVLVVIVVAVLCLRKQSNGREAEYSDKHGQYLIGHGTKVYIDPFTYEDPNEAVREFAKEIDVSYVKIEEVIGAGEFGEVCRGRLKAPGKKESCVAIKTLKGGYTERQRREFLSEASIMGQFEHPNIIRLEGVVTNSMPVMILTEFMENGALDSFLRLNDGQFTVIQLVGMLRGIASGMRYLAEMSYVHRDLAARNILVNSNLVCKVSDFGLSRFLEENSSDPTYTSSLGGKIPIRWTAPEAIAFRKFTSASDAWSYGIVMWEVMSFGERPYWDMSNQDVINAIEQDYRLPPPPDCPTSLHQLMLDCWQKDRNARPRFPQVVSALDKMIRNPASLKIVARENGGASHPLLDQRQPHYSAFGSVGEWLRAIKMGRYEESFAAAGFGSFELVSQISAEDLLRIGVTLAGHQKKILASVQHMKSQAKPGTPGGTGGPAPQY

[4] = biological target: Insulin-like growth factor 1 receptor (Homo sapiens) (UniProt P08069)
Sequence of Insulin-like growth factor 1 receptor (Homo sapiens) (P08069 31-736 limits assumed): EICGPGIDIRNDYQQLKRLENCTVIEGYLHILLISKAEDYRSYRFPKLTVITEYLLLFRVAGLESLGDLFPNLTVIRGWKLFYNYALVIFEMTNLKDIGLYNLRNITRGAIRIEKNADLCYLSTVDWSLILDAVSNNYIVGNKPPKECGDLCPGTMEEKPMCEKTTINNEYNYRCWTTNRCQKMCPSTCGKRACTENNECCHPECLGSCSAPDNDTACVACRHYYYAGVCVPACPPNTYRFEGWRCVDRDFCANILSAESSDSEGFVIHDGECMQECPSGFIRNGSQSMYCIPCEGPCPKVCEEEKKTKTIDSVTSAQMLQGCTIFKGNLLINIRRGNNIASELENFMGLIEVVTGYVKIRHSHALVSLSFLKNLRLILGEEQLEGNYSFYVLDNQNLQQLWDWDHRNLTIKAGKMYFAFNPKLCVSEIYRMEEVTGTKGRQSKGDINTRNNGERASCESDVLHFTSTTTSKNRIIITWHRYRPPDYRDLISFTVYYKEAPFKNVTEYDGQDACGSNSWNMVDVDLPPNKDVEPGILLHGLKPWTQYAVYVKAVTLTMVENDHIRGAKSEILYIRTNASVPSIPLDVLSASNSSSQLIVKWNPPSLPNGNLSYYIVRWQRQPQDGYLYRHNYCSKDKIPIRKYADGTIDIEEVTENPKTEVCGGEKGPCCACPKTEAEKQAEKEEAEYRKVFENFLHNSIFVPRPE
Sequence of Insulin-like growth factor 1 receptor (Homo sapiens) (P08069 741-1367 limits assumed): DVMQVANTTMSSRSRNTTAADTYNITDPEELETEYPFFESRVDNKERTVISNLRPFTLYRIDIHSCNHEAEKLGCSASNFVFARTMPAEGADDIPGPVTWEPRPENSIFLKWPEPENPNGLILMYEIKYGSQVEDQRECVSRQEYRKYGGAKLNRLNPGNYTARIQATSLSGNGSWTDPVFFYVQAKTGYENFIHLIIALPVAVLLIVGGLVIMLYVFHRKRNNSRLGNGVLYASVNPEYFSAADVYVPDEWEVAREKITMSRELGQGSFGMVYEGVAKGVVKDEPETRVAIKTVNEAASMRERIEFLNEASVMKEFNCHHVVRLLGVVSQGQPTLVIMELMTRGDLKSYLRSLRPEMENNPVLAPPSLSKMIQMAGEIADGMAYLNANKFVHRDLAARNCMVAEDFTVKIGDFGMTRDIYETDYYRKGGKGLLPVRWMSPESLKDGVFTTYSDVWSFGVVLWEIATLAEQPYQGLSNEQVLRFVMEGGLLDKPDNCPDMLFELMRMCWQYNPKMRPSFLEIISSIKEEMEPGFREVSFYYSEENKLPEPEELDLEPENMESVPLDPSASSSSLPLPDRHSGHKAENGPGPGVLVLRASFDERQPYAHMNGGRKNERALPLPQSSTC

[5] = biological target: MAPK/MAK/MRK overlapping kinase (Homo sapiens) (UniProt Q9UQ07)
Sequence of MAPK/MAK/MRK overlapping kinase (Homo sapiens) (Q9UQ07 whole entry): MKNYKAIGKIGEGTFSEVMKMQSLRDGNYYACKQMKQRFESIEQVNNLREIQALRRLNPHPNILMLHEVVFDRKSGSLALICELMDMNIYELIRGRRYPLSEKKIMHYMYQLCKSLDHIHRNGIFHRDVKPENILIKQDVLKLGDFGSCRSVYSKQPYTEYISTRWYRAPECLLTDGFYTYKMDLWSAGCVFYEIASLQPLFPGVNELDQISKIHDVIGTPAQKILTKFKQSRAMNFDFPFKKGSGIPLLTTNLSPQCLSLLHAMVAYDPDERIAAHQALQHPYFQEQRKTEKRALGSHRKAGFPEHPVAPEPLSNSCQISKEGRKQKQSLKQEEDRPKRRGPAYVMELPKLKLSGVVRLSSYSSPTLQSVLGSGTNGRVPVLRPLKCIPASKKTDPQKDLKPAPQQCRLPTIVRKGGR

[6] = biological target: Protein kinase C gamma type (Homo sapiens) (UniProt P05129)
[7] = biological target: Tyrosine-protein kinase Srms (Homo sapiens) (UniProt Q9H3Y6)
Sequence of Tyrosine-protein kinase Srms (Homo sapiens) (Q9H3Y6 whole entry, canonical isoform): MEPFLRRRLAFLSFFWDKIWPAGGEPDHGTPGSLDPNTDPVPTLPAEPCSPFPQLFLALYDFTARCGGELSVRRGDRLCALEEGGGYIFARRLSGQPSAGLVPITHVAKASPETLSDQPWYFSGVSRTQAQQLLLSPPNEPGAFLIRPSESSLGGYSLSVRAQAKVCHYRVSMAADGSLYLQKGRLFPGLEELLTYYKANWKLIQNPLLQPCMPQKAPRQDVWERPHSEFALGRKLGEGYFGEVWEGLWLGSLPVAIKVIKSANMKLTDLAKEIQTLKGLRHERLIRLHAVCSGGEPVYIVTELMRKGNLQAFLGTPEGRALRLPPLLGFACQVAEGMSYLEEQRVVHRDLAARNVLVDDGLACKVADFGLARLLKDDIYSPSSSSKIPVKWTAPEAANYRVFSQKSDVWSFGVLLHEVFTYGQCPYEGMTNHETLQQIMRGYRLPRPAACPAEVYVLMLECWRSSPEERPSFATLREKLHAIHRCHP

[8] = biological target: T2, Phosphorylase b kinase regulatory subunit alpha, liver isoform (Homo sapiens) (UniProt P46019)
T2 sequence (whole entry): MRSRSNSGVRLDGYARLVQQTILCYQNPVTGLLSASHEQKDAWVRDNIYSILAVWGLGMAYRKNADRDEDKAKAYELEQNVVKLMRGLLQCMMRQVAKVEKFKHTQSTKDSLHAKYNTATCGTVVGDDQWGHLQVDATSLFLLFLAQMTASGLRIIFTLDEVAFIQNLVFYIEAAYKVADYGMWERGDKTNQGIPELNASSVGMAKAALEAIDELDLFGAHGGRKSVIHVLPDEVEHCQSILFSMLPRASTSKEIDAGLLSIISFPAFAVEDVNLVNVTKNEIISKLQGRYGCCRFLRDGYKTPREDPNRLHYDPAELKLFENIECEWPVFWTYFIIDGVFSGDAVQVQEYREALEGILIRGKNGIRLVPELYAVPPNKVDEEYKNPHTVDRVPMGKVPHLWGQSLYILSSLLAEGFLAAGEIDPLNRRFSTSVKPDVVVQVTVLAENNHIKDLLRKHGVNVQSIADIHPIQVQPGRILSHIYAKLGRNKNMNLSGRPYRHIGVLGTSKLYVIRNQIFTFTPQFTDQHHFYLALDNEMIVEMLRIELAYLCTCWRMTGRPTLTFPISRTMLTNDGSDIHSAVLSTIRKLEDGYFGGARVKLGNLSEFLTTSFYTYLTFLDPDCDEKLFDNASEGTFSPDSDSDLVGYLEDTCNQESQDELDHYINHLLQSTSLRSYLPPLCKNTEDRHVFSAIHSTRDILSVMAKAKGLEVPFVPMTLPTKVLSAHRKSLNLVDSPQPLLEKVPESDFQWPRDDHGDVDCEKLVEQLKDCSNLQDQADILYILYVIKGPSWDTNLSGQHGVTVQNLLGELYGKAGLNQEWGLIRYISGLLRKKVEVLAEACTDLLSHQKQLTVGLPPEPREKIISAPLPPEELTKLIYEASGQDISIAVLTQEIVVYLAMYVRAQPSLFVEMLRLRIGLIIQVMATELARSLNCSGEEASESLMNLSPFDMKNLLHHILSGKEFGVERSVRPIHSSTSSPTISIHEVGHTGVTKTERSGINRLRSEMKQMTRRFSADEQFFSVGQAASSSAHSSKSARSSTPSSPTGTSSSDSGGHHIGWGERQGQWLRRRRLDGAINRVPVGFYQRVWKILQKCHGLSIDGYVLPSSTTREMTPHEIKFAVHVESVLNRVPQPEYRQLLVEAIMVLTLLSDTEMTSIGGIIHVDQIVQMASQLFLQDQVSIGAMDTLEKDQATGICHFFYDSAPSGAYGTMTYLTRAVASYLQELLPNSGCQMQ

[9] = biological target: Hepatocyte growth factor receptor (Homo sapiens) (UniProt P08581)
Sequence of Hepatocyte growth factor receptor (Homo sapiens) (P08581 whole entry): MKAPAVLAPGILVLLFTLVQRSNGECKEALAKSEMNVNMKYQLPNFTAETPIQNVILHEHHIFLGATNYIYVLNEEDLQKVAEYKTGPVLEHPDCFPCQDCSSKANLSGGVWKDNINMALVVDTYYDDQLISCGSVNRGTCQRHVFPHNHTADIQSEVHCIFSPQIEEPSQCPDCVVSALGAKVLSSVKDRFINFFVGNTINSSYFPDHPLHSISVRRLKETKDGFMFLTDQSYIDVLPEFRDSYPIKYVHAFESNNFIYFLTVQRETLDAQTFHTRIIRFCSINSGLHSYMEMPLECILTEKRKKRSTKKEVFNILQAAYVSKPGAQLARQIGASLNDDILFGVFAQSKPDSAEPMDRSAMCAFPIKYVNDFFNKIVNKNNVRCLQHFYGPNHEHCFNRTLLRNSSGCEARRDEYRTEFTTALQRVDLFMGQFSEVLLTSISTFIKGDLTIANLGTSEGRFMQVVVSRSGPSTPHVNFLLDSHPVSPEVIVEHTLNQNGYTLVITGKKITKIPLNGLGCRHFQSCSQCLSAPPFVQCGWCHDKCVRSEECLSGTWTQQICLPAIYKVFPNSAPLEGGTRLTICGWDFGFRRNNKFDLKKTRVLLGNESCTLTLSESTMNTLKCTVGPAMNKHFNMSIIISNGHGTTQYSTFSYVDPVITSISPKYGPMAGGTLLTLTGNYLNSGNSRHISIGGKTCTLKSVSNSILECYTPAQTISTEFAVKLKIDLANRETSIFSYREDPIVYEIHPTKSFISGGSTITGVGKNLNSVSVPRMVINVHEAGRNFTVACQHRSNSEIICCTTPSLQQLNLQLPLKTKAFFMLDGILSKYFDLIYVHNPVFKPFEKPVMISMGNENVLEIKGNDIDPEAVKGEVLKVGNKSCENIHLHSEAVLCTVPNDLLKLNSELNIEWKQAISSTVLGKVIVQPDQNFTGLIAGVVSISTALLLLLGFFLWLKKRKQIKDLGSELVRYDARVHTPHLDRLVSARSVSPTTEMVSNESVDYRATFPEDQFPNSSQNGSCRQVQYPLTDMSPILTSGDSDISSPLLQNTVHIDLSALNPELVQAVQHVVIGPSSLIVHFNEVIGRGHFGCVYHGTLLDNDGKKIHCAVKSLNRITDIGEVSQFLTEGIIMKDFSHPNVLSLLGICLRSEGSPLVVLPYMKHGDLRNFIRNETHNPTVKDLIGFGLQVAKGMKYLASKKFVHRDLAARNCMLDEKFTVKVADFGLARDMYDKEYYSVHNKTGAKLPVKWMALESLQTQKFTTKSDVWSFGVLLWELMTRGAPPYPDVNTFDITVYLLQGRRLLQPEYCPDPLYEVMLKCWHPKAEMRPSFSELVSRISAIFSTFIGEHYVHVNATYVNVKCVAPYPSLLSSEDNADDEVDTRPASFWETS

Measured: % residual kinase activity

Sequence of Tyrosine-protein kinase Fgr (Homo sapiens) (P09769 2-529 limits assumed): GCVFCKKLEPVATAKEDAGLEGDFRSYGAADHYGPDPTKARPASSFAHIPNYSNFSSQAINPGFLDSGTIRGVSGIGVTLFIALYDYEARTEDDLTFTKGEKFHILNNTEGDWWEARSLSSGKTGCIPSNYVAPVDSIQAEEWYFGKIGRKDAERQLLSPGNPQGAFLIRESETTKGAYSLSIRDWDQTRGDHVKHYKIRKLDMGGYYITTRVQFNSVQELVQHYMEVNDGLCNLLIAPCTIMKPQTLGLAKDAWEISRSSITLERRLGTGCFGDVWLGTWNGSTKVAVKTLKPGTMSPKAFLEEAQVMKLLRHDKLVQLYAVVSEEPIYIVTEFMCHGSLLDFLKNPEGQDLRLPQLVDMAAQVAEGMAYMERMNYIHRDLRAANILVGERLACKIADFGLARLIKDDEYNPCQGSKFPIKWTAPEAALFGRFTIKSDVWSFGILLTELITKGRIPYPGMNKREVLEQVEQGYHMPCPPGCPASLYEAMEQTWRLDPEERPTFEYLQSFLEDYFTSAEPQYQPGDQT

CN1CCN(c2cnc3c(C4CCN(C(=O)c5ccc(OC(F)(F)F)cc5N)CC4)ncnc3c2)CC1 [BAY-885]
inactive: [1] 98% | [2] 111% | [3] 103% | [4] 90% | [5] 94% | [6] 120% | [7] 81% | [8] 112% | [9] 93%
